Values quoted from earlier work in patent US20160354364A1, “Pharmaceutical Compositions” (Alpharma Pharmaceuticals LLC, priority 2008, published 2016).

Details: in vivo

For `O=C1CC[C@@]2(O)[C@H]3Cc4ccc(O)c5c4[C@@]2(CCN3CC2CC2)[C@H]1O5` [Naltrexone, naltrexone], the “time of absorption following oral administration” value is listed as no more than 1 h.
